From patent publication US20230296491A1, “DEVICE AND METHOD FOR DETERMINING A MECHANICAL PROPERTY OF A PARTICLE” (priority 2020, published 2023)

Assays:
NIH 3T3 fibroblast cells [1] = experiment: Fluorescence imaging of actin in live NIH 3T3 cell before and after CB treatment; assay type: cell-based; settings: NIH 3T3, fluorescence images (actin)
Procedure: (a) Representative fluorescence images (actin, red) of a live cell before (top) and after CB treatment (bottom).
(§1) Cytochalasin B (Sigma-Aldrich) treated NIH 3T3 were prepared by incubating cells in 150 μM Cytochalasin B at 37° C. for two hours. After treatment with chemical reagents, cells were washed, centrifuged and resuspended in 2 wt % PEO solution. The viscoelastic solution was prepared by dissolving PEO (Mw=600 kDa, Sigma-Aldrich) powder into DPBS (Thermo Fisher Scientific) with a concentration of 2 wt %.
To test the sensitivity of our system for cellular mechanical phenotyping, we compared the deformability of normal and Cytochalasin B (CB) treated two hours NIH 3T3 fibroblasts. […] In addition, we measured the deformability at a wide flow rate range of 1-30 μl/min. […] This flow rate was then applied to analyze the deformability difference. Furthermore, fixed cells were measured as control of undeformed cells.

NIH 3T3 fibroblast cells [2] = experiment: Hydrodynamic stretching deformability of chemically treated NIH 3T3 fibroblasts in the microfluidic system; assay type: cell-based; settings: flow rate 10 μl/min, 2 wt % PEO; for mean deformability in the first frame: first frame of the recording cycle (before stretching); for deformability (mean, aspect ratio a/b of the deformed cell): last (15th) frame, CB 150 μM for two hours, fixation 4% formaldehyde for 8 mins
Procedure: On the other hand, an electrical sensing zone is introduced for on-demand single cell imaging. Three electrodes of 20 μm in width, 20 μm intervals are placed before the flow splitting junction, an input voltage of 0.5 V at 5 MHz is applied to the middle electrode and the differential current (Idifferential) is calculated from the two-sided electrodes. The differential configuration can cancel out electrical drifting caused by environmental fluctuation (i.e. flow, temperature, conductivity and pH) and achieve a higher signal-to-noise ratio. As the cell passes through the sensing region, it replaces the conductive medium and causes a change in the electrical current. By that, a pair of opposite peaks is transmitted into an impedance spectroscope. When the peak reaches the trigger level, a trigger signal is generated and fed to the camera. […] Next, for example at a flow rate of 10 μl/min, the camera starts to record 15 frames at a rate of 2,000 frames per second, with an exposure time of 50 μs. The first frame in a recording cycle is used to extract the cell diameter. At this point, the cell remains spherical because it starts to decelerate and is subject to minor stress. In one record cycle, the cell approaches the splitting junction, reaches the channel wall and migrates along the wall for a time span, ensuring the maximum strain is captured at the 15th frame (FIG. 5a). Its aspect ratio evaluates the cell deformability as
where a and b are the length of the long axis and the short axis of the deformed cell, respectively.
as §1
Samples were continuously introduced into the microfluidic devices using a syringe pump (KD Scientific, Holliston, MA) at a range of flow rates. Simultaneously, the electrical current was received by an impedance spectroscope (HF2IS, Zurich Instruments) and analyzed by a real-time program to send out a trigger signal whenever there was a cell passing through the electrical sensing region. The triggering signal was received by a camera (Photron Inc., San Diego, CA, USA), which started to record 15 frames at a 2,000 frame rate with an exposure time of 50 μs (at a flow rate of 10 μl/min). After the event triggered imaging process was completed, the video was processed offline using a custom-built Python program. […]

Compound | effect on intracellular F-actin (FIG. 8a) (NIH 3T3 fibroblast cells [1]) | mean deformability in the first frame (NIH 3T3 fibroblast cells [2]) | deformability (mean, aspect ratio a/b of the deformed cell) (NIH 3T3 fibroblast cells [2])
C=C1[C@@H](C)[C@H]2[C@H](Cc3ccccc3)NC(=O)[C@]23OC(=O)/C=C/[C@H](O)CCC[C@@H](C)C/C=C/[C@H]3[C@@H]1O [CB, Cytochalasin B] | intracellular F-actin depolymerization | 1.16±0.12 | 1.87±0.23
C=O [formaldehyde] | – | 1.12±0.06 | 1.29±0.11
